In US8969294B2 (Istituto di Recerche di Biologia Molecolare P. Angeletti …, priority 2008, dated 2015):
Numbered stars: 1 amine (or outer) side, 2 acyl side, 3 side chain; on linkers, the order of the positions; unused ones are H or OH. Square brackets hold non-standard residues; d marks the D form. Side chains are listed from the residue outwards. Ends that are not written are not given here. Peptide text beside a SMILES is read from it. * marks the point of attachment. γGlu = O=C(O)[C@H](CCC(=O)[*:2])N[*:1]; Palmitoyl = CCCCCCCCCCCCCCCC(=O)*; Aib = CC(C)(N)C(=O)O

Tests used:
glucagon receptor = glucagon receptor (Homo sapiens, UniProt P47871); test: Functional assay, cAMP synthesis: luciferase reporter in HEK293 cells co-transfected with glucagon receptor
Method: (§1) Peptide absorbance readings were obtained from UV Absorbance measurements at 280 nm on a Genesys 6 Spectrophotometer (Thermo Electron Corporation). Beer's Law was used to calculate solution concentrations based on the number of tryptophan and tyrosine residues in each analog. At the end of the incubation, 100 μL LucLite luminescence substrate reagent was added to each well, the plate sealed and shaken, and placed into a Wallac Trilux luminescence counter for cAMP detection.
(§2) HEK293 cells were co-transfected with the GcgR or GLP-1R cDNAs and a luciferase reporter gene-linked to a cAMP response element (CRE). […] The plate was incubated for 10 min in the dark and light output was quantified on a MicroBeta1450 liquid scintillation counter (Perkin-Elmer, Wellesley, Mass.).

GLP-1 receptor = GLP-1 receptor (Homo sapiens, UniProt P43220); test: Functional assay, cAMP synthesis: luciferase reporter in HEK293 cells co-transfected with GLP-1 receptor
Method: as §1, §2

[1] = Circular dichroism, percent helicity
[2] = Diet-induced obese rats, once-a-week injection, 3-week treatment; type: in vivo; settings: 70 nmol/kg/week, 3 weeks
Method: To determine if the principal phenomenon generalizes across species, both compounds were administered to diet-induced obese rats (mean weight 777.4+/−2.1 g, dose 70 nmol/kg/week, once-a-week injection, 3-week treatment).

[3] = GLP-1 receptor knock out (GLP-1R−/−) mice on high-fat diet, one month; type: in vivo
[4] = Diet-induced obese C57B6 mice, s.c. Peptide X-PEG / Y-PEG (Examples 45-49); type: in vivo
Method: C57BI/6 mice were obtained from Jackson Laboratories and fed a diabetogenic diet from Research Diets, a high sucrose diet with 58% kcal from fat. Mice were single or group-housed on a 12:12-h light-dark cycle at 22° C. with free access to food and water. All studies were approved by and performed according to the guidelines of the Institutional Animal Care and Use Committee of the University of Cincinnati.
Whole body composition (fat and lean mass) was measured using NMR technology (EchoMRI, Houston, Tex.).
Energy intake and expenditure, as well as home-cage activity, were assessed by using a combined indirect calorimetry system (TSE Systems, Bad Homburg, Germany). Oxygen consumption and CO2 production were measured every 45 min for a total of 120 h (including 12 h of adaptation) to determine the respiratory quotient and energy expenditure. Food and water intake and meal patterns were determined continuously for 120 h at the same time as the indirect calorimetry assessments by integration of scales into the sealed cage environment. Meals were defined as food intake events with a minimum duration of 60 s, and a break of 300 s between food intake events. Home-cage locomotor activity was determined using a multidimensional infrared light beam system with beams scanning the bottom and top levels of the cage, and activity being expressed as beam breaks. Stationary motor activity (fidgeting) was defined as consecutive breaks of one single light beam at cage-bottom level, ambulatory movement as breaks of any two different light beams at cage-bottom level, and rearing as simultaneous breaks of light beams on both cage-bottom and the top level.
Blood was collected after a 6-h fast from tail veins using EDTA-coated Microvette tubes (Sarstedt, Nuremberg, Germany) and immediately chilled on ice. After 15 min of centrifugation at 3,000 g and 4° C., plasma was stored at −80° C. Plasma insulin was quantified by a radioimmunoassay from Linco (Sensitive Rat Insulin RIA; Linco Research, St. Charles, Mo.). Plasma TGs and cholesterol levels were measured by enzymatic assay kits (Thermo Electron, Waltham, Mass.). Samples were analyzed individually with the exception that pooled samples (0.25 ml) from 5 animals/group were subjected to fast-performance liquid chromatography (FPLC) gel filtration on two Superose 6 columns connected in series for lipoprotein separation. All assays were performed according to the manufacturer's instructions.
For the determination of glucose tolerance, mice were subjected to 6 h of fasting and injected intraperitoneally (i.p.) with 2 g glucose/kg body wt (50% D-glucose (Sigma) in 0.9% saline) for the glucose tolerance test (GTT). Tail blood glucose levels (mg/dl) were measured by using a hand-held glucometer (TheraSense Freestyle) before (0 min) and at 15, 30, 60, 90, and 120 min after injection.
The 40-kd pegylated peptides Peptides X-PEG and Y-PEG were used as single weekly subcutaneous (s.c) injections in diet-induced obese (D10) C57B6 mice.
Long-term effects of these lower doses on food intake (p=0.95; FIG. 29C) were less impressive than short-term effects with a higher dose (FIG. 27C).

[5] = Glucose challenge in DIO mice after i.p. peptide (Examples 24, 25); type: in vivo; settings: 2, 20, 70 nmol/kg i.p.
Method: Diet-induced obesity (DIO) mice were injected intraperitoneally at the −15 min time point with 0.2, 2, 20, or 70 nmol/kg of one of the following:
A saline solution comprising 25% (v/v) glucose was injected at a dose of 1.5 g/kg of body weight at the 0 min time point. Blood glucose levels were measured at the −15, 0, 15, 30, 60, and 120 min time points.
DIO mice were injected intraperitoneally at the −24 hr time point with 70 nmol/kg of one of the following:
A saline solution comprising 25% (v/v) glucose was injected at a dose of 1.5 g/kg of body weight at the 0 min time point. Blood glucose levels were measured at the 0, 15, 30, 60, and 120 min time points.

[6] = DIO mice, i.p. once a week for 2 weeks (Example 30); type: in vivo; settings: for blood glucose levels in response to a glucose injection: glucose 24 hours after peptide
Method: Changes in body weight of and food intake by the mice were measured 0, 1, 3, 5, 7, 8, 10, 12, and 14 days after injection. Blood glucose levels of the mice were monitored throughout the 14 days. Glucose tolerance tests were performed by injecting a 25% glucose in saline solution 1 hour or 24 hours after administration of the acylated or pegylated peptide and measuring blood glucose levels at −60, 0, 15, 30, 60, or 120 min after the glucose injection.

[7] = DIO mice, s.c. daily for seven days (Example 32); type: in vivo
Text: The acylated glucagon analogs were as follows:

[8] = EC50 at Glucagon Receptor, Table 31

Chain of GLP-1 receptor (P43220 24-463, species assumed): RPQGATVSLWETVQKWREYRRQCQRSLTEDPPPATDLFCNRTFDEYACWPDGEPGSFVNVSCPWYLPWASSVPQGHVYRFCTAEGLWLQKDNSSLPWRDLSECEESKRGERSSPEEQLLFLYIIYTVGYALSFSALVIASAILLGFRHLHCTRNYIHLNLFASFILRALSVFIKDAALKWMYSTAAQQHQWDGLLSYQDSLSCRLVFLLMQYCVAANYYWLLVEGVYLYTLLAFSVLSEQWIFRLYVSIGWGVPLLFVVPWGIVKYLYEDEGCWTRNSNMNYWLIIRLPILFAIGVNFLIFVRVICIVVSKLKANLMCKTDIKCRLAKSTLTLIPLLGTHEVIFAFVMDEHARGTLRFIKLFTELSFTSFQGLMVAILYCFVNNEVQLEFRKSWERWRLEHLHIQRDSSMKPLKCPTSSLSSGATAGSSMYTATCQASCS
Chain of glucagon receptor (P47871 26-477): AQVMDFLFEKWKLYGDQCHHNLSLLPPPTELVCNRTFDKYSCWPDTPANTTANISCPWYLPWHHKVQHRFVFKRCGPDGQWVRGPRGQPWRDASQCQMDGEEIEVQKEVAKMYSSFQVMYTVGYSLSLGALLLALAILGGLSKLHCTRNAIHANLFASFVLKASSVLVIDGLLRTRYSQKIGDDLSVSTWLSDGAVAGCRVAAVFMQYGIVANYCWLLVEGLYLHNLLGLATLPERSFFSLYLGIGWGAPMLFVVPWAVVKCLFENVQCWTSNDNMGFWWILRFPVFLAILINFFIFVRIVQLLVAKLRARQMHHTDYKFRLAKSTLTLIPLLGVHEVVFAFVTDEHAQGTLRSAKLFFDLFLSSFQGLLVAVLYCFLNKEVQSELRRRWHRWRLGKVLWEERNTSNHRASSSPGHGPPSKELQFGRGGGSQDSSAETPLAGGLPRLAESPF

CCCCCCCCCCCCCC(=O)NCCCC[C@H](NC(=O)[C@H](CC(=O)O)NC(=O)[C@H](CO)NC(=O)[C@@H](NC(=O)[C@H](Cc1ccccc1)NC(=O)[C@@H](NC(=O)CNC(=O)[C@H](CCC(N)=O)NC(=O)[C@H](CO)NC(=O)C(C)(C)c1c[nH]cn1)[C@@H](C)O)[C@@H](C)O)C(=O)N[C@@H](CO)C(=O)N[C@@H](CCCCN)C(=O)N[C@@H](Cc1ccc(O)cc1)C(=O)N[C@@H](CC(C)C)C(=O)N[C@@H](CC(=O)O)C(=O)N[C@H]1CCC(=O)NCCCC[C@@H](C(=O)N[C@@H](CC(=O)O)C(=O)N[C@@H](Cc2ccccc2)C(=O)N[C@H](C(=O)N[C@@H](CCC(N)=O)C(=O)N[C@@H](Cc2c[nH]c3ccccc23)C(=O)N[C@@H](CC(C)C)C(=O)N[C@@H](CCSC)C(=O)N[C@@H](CC(N)=O)C(=O)N[C@H](C(N)=O)[C@@H](C)O)C(C)C)NC(=O)[C@H](C)NC(=O)[C@H](CCCNC(=N)N)NC(=O)[C@H](CCCNC(=N)N)NC1=O [DMIA1, K10(C14), [E16/K20]-Gluc Amide]
% Activity of Glucagon (glucagon receptor; Table 21): 203.7% | % Activity of GLP-1 (GLP-1 receptor): 30%

CSCC[C@H](NC(=O)[C@H](CC(C)C)NC(=O)[C@H](Cc1c[nH]c2ccccc12)NC(=O)[C@H](CCC(N)=O)NC(=O)[C@@H](NC(=O)[C@H](Cc1ccccc1)NC(=O)[C@H](CC(=O)O)NC(=O)[C@H](CCCCN)NC(=O)[C@H](C)NC(=O)[C@H](CCCNC(=N)N)NC(=O)[C@H](CCCNC(=N)N)NC(=O)[C@H](CCC(=O)O)NC(=O)[C@H](CC(=O)O)NC(=O)[C@H](CC(C)C)NC(=O)[C@H](Cc1ccc(O)cc1)NC(=O)[C@H](CCCCN)NC(=O)[C@H](CO)NC(=O)[C@H](Cc1ccc(O)cc1)NC(=O)[C@H](CC(=O)O)NC(=O)[C@H](CO)NC(=O)[C@@H](NC(=O)[C@H](Cc1ccccc1)NC(=O)[C@@H](NC(=O)CNC(=O)[C@H](CCC(N)=O)NC(=O)[C@H](CO)NC(=O)[C@@H](N)Cc1c[nH]cn1)[C@@H](C)O)[C@@H](C)O)C(C)C)C(=O)N[C@@H](CC(N)=O)C(=O)N[C@H](C(N)=O)[C@@H](C)O [E16, K20 Gluc-NH2, HSQGTFTSDYSKYLDERRAKDFVQW LMNTa]
EC50 (glucagon receptor; EC50, Glucagon Receptor, Table 13): 0.18 nM | EC50 (glucagon receptor; EC50 at Glucagon Receptor, Table 17): 0.203 nM | Percent Potency Relative to Native Ligand, GRec (glucagon receptor; Table 5): 130.1% | Percent Potency Relative to Native Ligand, GRec (glucagon receptor; Table 9): 130.1% | Percent Potency Relative to Native Ligand, GLP-1Rec (GLP-1 receptor; Table 5): 41.5% | Percent Potency Relative to Native Ligand, GLP-1Rec (GLP-1 receptor; Table 9): 41.5%

CCCCCCCCCCCCCCCC(=O)N[C@@H](CCC(=O)N[C@@H](CCC(=O)NCCCC[C@H](NC(=O)[C@H](CC(=O)O)NC(=O)[C@H](CO)NC(=O)[C@@H](NC(=O)[C@H](Cc1ccccc1)NC(=O)[C@@H](NC(=O)CNC(=O)[C@H](CCC(N)=O)NC(=O)C(C)(C)NC(=O)[C@@H](N)Cc1c[nH]cn1)[C@@H](C)O)[C@@H](C)O)C(=O)N[C@@H](CO)C(=O)N[C@@H](CCCCN)C(=O)N[C@@H](Cc1ccc(O)cc1)C(=O)N[C@@H](CC(C)C)C(=O)N[C@@H](CC(=O)O)C(=O)NC(C)(C)C(=O)N[C@@H](CCCNC(=N)N)C(=O)N[C@@H](C)C(=O)N[C@@H](C)C(=O)N[C@@H](CCC(N)=O)C(=O)N[C@@H](CC(=O)O)C(=O)N[C@@H](Cc1ccccc1)C(=O)N[C@H](C(=O)N[C@@H](CCC(N)=O)C(=O)N[C@@H](Cc1c[nH]c2ccccc12)C(=O)N[C@@H](CC(C)C)C(=O)N[C@@H](CCSC)C(=O)N[C@@H](CC(=O)O)C(=O)N[C@H](C(N)=O)[C@@H](C)O)C(C)C)C(=O)O)C(=O)O [compound 655] (H-H[Aib]QGTFTSDK([γGlu-γGlu-Palmitoyl])SKYLD[Aib]RAAQDFVQWLMDT-NH2; N-terminus assumed)
EC50 (glucagon receptor; [8]): 0.003 nM

CCCCCCCCCCCCCCCC(=O)N[C@@H](CCC(=O)NCCCC[C@H](NC(=O)[C@H](CC(=O)O)NC(=O)[C@H](CO)NC(=O)[C@@H](NC(=O)[C@H](Cc1ccccc1)NC(=O)[C@@H](NC(=O)CNC(=O)[C@H](CCC(N)=O)NC(=O)C(C)(C)NC(=O)[C@@H](N)Cc1cnc[nH]1)[C@@H](C)O)[C@@H](C)O)C(=O)N[C@@H](CO)C(=O)N[C@@H](CCCCN)C(=O)N[C@@H](Cc1ccc(O)cc1)C(=O)N[C@@H](CC(C)C)C(=O)N[C@@H](CC(=O)O)C(=O)NC(C)(C)C(=O)N[C@@H](CCCNC(=N)N)C(=O)N[C@@H](C)C(=O)N[C@@H](C)C(=O)N[C@@H](CCC(N)=O)C(=O)N[C@@H](CC(=O)O)C(=O)N[C@@H](Cc1ccccc1)C(=O)N[C@H](C(=O)N[C@@H](CCC(N)=O)C(=O)N[C@@H](Cc1c[nH]c2ccccc12)C(=O)N[C@@H](CC(C)C)C(=O)N[C@@H](CCSC)C(=O)N[C@@H](CC(=O)O)C(=O)N[C@H](C(N)=O)[C@@H](C)O)C(C)C)C(=O)O [compound 656]
EC50 (glucagon receptor; [8]): 0.006 nM

GLP-1
Percent Helicity, 0% TFE ([1]; 10 mM phosphate buffer pH 5.9, 0% TFE): 14% | Percent Helicity, 10% TFE ([1]; 10% TFE): 29% | Percent Helicity, 20% TFE ([1]; 20% TFE): 55%

H(Aib)QGTFTSDYSKYLDEQAAKEFICWLMNT-amide [Peptide Y-PEG]
change in body weight [2]: −20.58+/−2.26% | change in fat mass [2]: −33.76+/−4.76% | body weight [3]: significant decrease in body weight | fat mass [3]: significant decrease | total cholesterol ([4]; 70 nmol/kg s.c. Days 0 and 7, evaluated Day 9): 63.0 mg/dL | blood glucose profile (AUC), i.p. glucose challenge ([4]; Day 3): 14183±1072 | Blood glucose levels, mean decrease ([4]; weekly s.c. 70 nmol/kg, from Day 3): −32% | decrease in body weight ([4]; weekly s.c. 70 nmol/kg, one month): 28.1%

Peptide A K^10—C8: Chimera 2 with AIB2, Lys10 acylated with C8 fatty acid, Cys24 40K PEG (H[Aib]QGTFTSDK(C8 fatty acid)SKYLDEQAAKEFIC(PEG 40 kDa)WLMNT-NH2)
ability to lower blood glucose, glucose challenge 15 min after peptide [5]: greatest ability to lower blood glucose | blood glucose levels in response to a glucose injection [6]: lowered in comparison to vehicle control

Peptide A K^10—C14: Peptide A of Example 20 with Lys10 acylated with a C14 fatty acid chain (H[Aib]QGTFTSDK(C14 fatty acid)SKYLDEQAAKEFIC(PEG 40 kDa)WLMNT-NH2)
total body weight ([6]; 40 or 80 nmol/kg, 14 days): reduced as compared to mice injected with the vehicle control | blood glucose levels in response to a glucose injection [6]: lowered in comparison to vehicle control

γE-γE-C16 Glucagon Amide: C16 Glucagon Amide with C16 attached to Lys10 through gamma-Glu-gamma-Glu dipeptide spacer
fat mass on Day 7 ([7]; 100 nmol/kg): lowest fat mass | ability to cause weight loss ([7]; 30 or 100 nmol/kg daily s.c.): greatest ability to cause weight loss | decrease of blood glucose levels ([7]; higher dose): worked as well as Liraglutide
